# Patent US20230255946A1 (Pure Tech LYT 100, Inc., priority 2020, published 2023)
# Entries after “also recorded” stand apart in the source; their conditions may differ.
# What was measured:
# [1] = Food Effect Study Part 2 (Cohort 5), single 500 mg dose fed vs fasted; assay type: in vivo
# Experimental: The comparison will be based on Day 1, Day 2 and Day 3 PK plasma samples after the first dose of study drug on Day 1 under fast and fed conditions of Part 2.
# Subjects will be admitted to the CRU on Day -1 and will fast overnight for at least 10 h.
# Comparison of the PK parameters in the fed and fasted states will be performed, and analysis of PK by gender may be performed if the data allow.
# [2] = human, in vivo
# Experimental: All Part 1 cohorts will be dosed every 12 hours with food for 5 days.
# During the treatment period (Day 1 through Day 5), participants will be administered their assigned study medication BID, every 12 h ± 0.25 h (with approximately 240 mL of non-carbonated water), 30 minutes after the start of consumption of their standardised breakfast or dinner (12 h apart). A standardised lunch will be served ≥ 4 h post breakfast and ≥ 4 h prior to dinner. An evening snack will be served ≥ 3 h following evening study medication administration. No additional fluids will be allowed during the 1 h pre- and post-doses. On Day 6, subjects will replicate mealtimes as scheduled on Day 1-5.
# In Part 1, blood samples (4 mL each) for PK will be collected for Cohorts 1, 2, 3, 4, and 6 at specified times (hours) at each as follows: • Day 1 and Day 5: 0 (pre-dose), 0.5, 1, 1.5, 2, 2.5, 3, 3.5, 4, 6, 8, 12 (pre-dose), 13, 14, 15, 16, 18 h • Day 2, Day 3 and Day 4: 0 (pre-morning-dose) and 12 h (pre-evening-dose) • Day 6: 12, 18, 24 and 36 h post-last dose • Day 7: 48 h (post-last dose)
# Pharmacokinetics for Day 1 to 3 in Part 2 (fed state) will be compared to PK for Day 1 to Day 3 in Part 2 (fasted state). Plasma PK parameters (non-compartmental or compartmental analysis as appropriate) will include, but are not limited to: • Following single dose: Tmax, tlag, Cmax, AUC0-4, AUC0-last, t½, AUC0-inf, lambda z, %AUCext, CL/F, Vz/F, Cmax/D, AUC0-last/D, AUC0-inf/D and MRT (D is dose) • After repeated doses: Ctrough, Ctrough/D • Following repeated doses on last day: Tmax, Cmax, Cavg, tlag, t½, AUC0-4, AUC0-last, AUC0-inf, lambda z, %AUCext, CLss/F, Vzss/F, MRT, PTF, Rac(AUC), Rac(Cmax), Cmax/D, AUClast/D, AUC0-inf/D and Rac (accumulation ratio)
# All cohorts (n=6 each) were dosed every 12 hours with food for 5 days at either 100, 250, 500, or 750 mg BID. […] Following processing, the samples were analyzed by HPLC on a Phenomenex Luna PFP(2), 3 µm, 50 x 2.0 mm column, and the eluates were monitored by an API4000 MS/MS detector in positive MRM mode. The data were acquired and processed by the data acquisition system Analyst® (Sciex).
# [3] = male, Sprague Dawley, rat, in vivo, 28 days
# Experimental: The protocol was amended to add additional TK male animals in Group 6 for Day 1 collection of TK samples at 875 mg/kg.
# Blood samples were collected from 3 subsets of 3 animals/sex on Day 1 and Day 28 at predose, 0.25, 0.5, 1, 2, 4, 8 and 24 hours (hr) post-dose for groups 2 to 6 and from one subset of 3 animals/sex at 0.25 hr post-dose for the vehicle group (group 1). […] Non-compartmental analysis (NCA) of plasma concentration data was conducted using Phoenix® WinNonlin®, version 8.0.
# [4] = 200 mg SD-559 (pirfenidone) BID, Huang et al.; in ng/mL; cited from earlier work
# NASH mice = experiment: NASH mouse model (streptozotocin and high fat diet), liver histology; assay type: in vivo
# Description: Non-alcoholic steatohepatitis (NASH) is characterized by lobular inflammation, hepatocyte ballooning and degeneration progressing to liver fibrosis. […] In addition, nine non-NASH mice were fed with a normal diet and monitored.
# L929 cells [5] = experiment: Survival of L929 cells (MTT); assay type: cell-based; details: 500 µM, 72 hrs
# Experimental: Five thousand L929 cells were plated in completed DMEN and incubated until confluency for 3 days. Medium was removed and complete DMEM containg Prolin (20 µg/ml) and ascorbic acid (10 uM) was added. […] 100 µL of medium was removed, 20 µL MTT solution was added for 4 hrs, then 100 µl of DMSO was added, and absorbance of developed dark pink color was determined at […].
# L929 cells [6] = experiment: TGF-induced collagen synthesis in L929 cells, 6-wells (SIRCOL); assay type: cell-based; details: 500 µM
# Experimental: 100,000 L929 cells were plated in complete DMEN and incubated until confluency for 3 days. Medium was removed and complete DMEM containg Prolin (20 µg/ml) and ascorbic acid (10 µM) was added. […] Cells were further incubated for 72 hrs. Supernatant was removed, cells were washed with cold PBS, 1 ml SIRCOL reagent was added onto the cells and cells were scraped off, samples were shaken for 5 h.at RT, centrifuged at 10.000 rpm for 5 min, supernatant was removed, pellet was dissolved in 0.5 M acetic acid to remove unbound dye, and re-centrifuged at 10.000 rpm for 5 min, supernatant was removed and final pelet was dissolved in 1 ml 0.5 M NaOH, shaken at RT for 5 h, 100 µl of resulted solution was placed in 96-well and O.D was determined at 600.
# L929 cells [7] = experiment: TGF-induced collagen synthesis in L929 cells, 96-well plate format (SIRCOL); assay type: cell-based; details: 500 µM
# Experimental: Five thousand L929 cells were plated in complete DMEN and incubated until confluency for 3 days. Medium was removed and complete DMEM containg Prolin (20 µg/ml) and ascorbic acid (10 µM) was added. […] Cells were further incubated for 72 hrs. Supernatant was removed, 0.5% gluteraldehyde was added for 30 min at RT, removed, washed 3X with ddwater, 0.5 M acetic acid was added for 30 min at RT, removed, washed with water, air dried and 100 µl SIRCOL dye was added for 5 h at RT. Dye was removed, plate was washed extensively under running water, air dried and 200 µl of 0.5 M NaOH was added, plates were shaken at RT for 1 h, and OD was determined at 600 nm.
# L929 cells [8] = experiment: TGF-induced soluble collagen synthesis in L929 cells (ELISA); assay type: cell-based; details: 500 µM
# Experimental: Five thousand L929 cells were plated in complete DMEN and incubated until confluency for 3 days. Medium was removed and complete DMEM containing Prolin (20 µg/ml) and ascorbic acid (10 µM) was added. […] Cells were further incubated for 72 hrs. 200 µl supernatant of 96-well SIRCOL plate was placed onto ELISA plate and incubated O/N. Next day, supernatant was removed and 100 ul of 1%BSA in PBST was added and incubated for 2 h at RT, BSA was removed, plate was washed 3x with 200 µl of PBST, and anti-collagen type I a.b was added at 1:2000 dilution (prepared in %1 BSA in PBST), incubated at RT for 1 h, primary a.b was removed, plate was washed 3x with 200 µl PBST, and secondary anti-goat HRP was added at 1:2000 dilution, incubate at RT for 1 h, removed, plate was washed 3x with 200 µl PBST and 100 µl of TMB solution was added for color development for 15 min, then 100 µl of 2 N H2SO4 was added to stop the reaction and O.D of developed yellow color was determined at 450 nm.
# L929 cells [9] = experiment: TGF-induced soluble fibronectin synthesis in L929 cells (ELISA); assay type: cell-based; details: 500 µM, in the absence and presence of TGF-β-induction
# Description: Fibronectin is another important component of fibrotic lungs as it is induced by TGF-β and functions both as a structural component of extra cellular matrix as well as well as a ligand for integrin receptors. Just like soluble collagen, binding of fibronectin to integrin receptors induces the proliferation of fibroblast and epithelial cells of the lungs.
# [10] = test system: mouse tail model of lymphedema; experiment: Mouse tail model of lymphedema; assay type: in vivo; details: 400 mg/kg/day oral gavage once daily, by 5 weeks
# [11] = human, in vivo, 48 h
# Description: Following screening, eligible healthy volunteer subjects were admitted to a single clinical study site and were randomized to 1 of 2 treatment sequences. […] In each period, a standardized breakfast was provided to subjects prior to administration of study drug (to compare the PK profiles in the clinically relevant fed state) and plasma samples were collected over a 48-hour period after dosing for evaluation of PK. Dosing between the 2 periods was separated by a minimum of 7 days. Subjects completed the study upon completion of the 48-hour post-dose assessments following dosing period 2.
# All capsules were identical in size, shape, and external color.
# [12] = MAD study, safety and tolerability (adverse events)
# Description: All participants in Part 1 and Part 2 will be monitored for safety (including assessment of chemistry, haematology and urinalysis parameters, electrocardiograms [ECGs], vital signs and adverse events [AEs]) and samples will be collected for assessment of PK at predefined time points pre and post-dose as delineated in the Schedule of Events.
# Safety and tolerability will be assessed throughout Part 1, Part 2 and Part 3 of the study by monitoring AEs, physical examination, vital signs, 12-lead ECGs, clinical laboratory values (haematology panel, multiphasic chemistry panel and urinalysis), and review of concomitant treatments/medication use.
structure (smiles),measurement,setting,value
"O=C(O)c1ccc(=O)n(-c2ccccc2)c1 [LYT-105, 5-carboxy-pirfenidone]","change in Cmax, AUC, fed vs fasted",[1]; 5-carboxypirfenidone after LYT-100 500 mg,< 5%
same,average ratio of metabolite to the parent (M/P) by AUC,[2],0.45
same,dose dependence of AUC96-108,[2],linear dose proportionality
same,exposure in rats relative to humans,[3],~7 fold
same,observed Cmax,[4],1476
"[2H]C([2H])([2H])c1ccc(=O)n(-c2ccccc2)c1 [LYT-100, deupirfenidone]","AUC, % Change Fed vs Fasted",[1]; LYT-100 @500 mg single dose,-19%
same,"Cmax, % Change Fed vs Fasted",[1]; LYT-100 @500 mg single dose,-23%
same,"Tmax, % Change Fed vs Fasted",[1]; LYT-100 @500 mg single dose,+25%
same,tolerability with or without food,[1]; single dose of 500 mg,no evidence of any tolerability concerns
same,Fibrosis Area (%),"NASH mice; 30 mg/kg twice daily oral, 6-9 weeks of age, n=8, mean ± SD, p<0.01 vs Vehicle",0.64 ± 0.31 %
same,fibrosis area compared to the vehicle group,NASH mice; Sirius-red stained liver sections,significant reduction
same,number of animals with Steatosis score 0,"NASH mice; score 0 = <5%, n=8",4
same,number of animals with Steatosis score 1,"NASH mice; score 1 = 5-33%, n=8",3
same,number of animals with Lobular Inflammation score 1,"NASH mice; score 1 = <2 foci/200x, n=8",5
same,number of animals with Lobular Inflammation score 2,"NASH mice; score 2 = 2-4 foci/200x, n=8",3
same,number of animals with Steatosis score 2,"NASH mice; score 2 = >33%-66%, n=8",1
same,number of animals with Hepatocyte ballooning score 2,"NASH mice; score 2 = Many cells/prominent ballooning, n=8",8
same,survival of L929 cells,L929 cells [5],does not affect survival
same,collagen synthesis in the absence of added TGF-β,L929 cells [6],significantly inhibits
same,TGF-induced collagen synthesis,"L929 cells [6]; TGF-β 5 ng/ml, 72 hrs",inhibits
same,total collagen level in the absence of TGF-β induction,L929 cells [7],signficantly inhibited or reduced
same,TGF-β-induced total collagen levels,"L929 cells [7]; TGF-β 5 ng/ml, 72 hrs",significanly inhibited or reduced
same,soluble collagen levels in the absence of TGF-β-induction,L929 cells [8],signficantly reduced
same,TGF-β-induced soluble collagen levels,"L929 cells [8]; TGF-β 5 ng/ml, 72 hrs",significantly inhibits
same,soluble fibronectin levels,L929 cells [9],signficantly reduced
same,swelling (tail volume) as compared to carboxymethylcellulose control,[10],significantly reduced swelling
same,tolerability of single doses,[11],well tolerated
same,dose dependence of AUC96-108,[2],linear dose proportionality
same,"abdominal discomfort, AE across all cohorts",[12],6.7%
same,"abdominal distension, AE across all cohorts",[12],10%
same,"headache, AE across all cohorts",[12],23.3%
same,"nausea, AE across all cohorts",[12],10%
same,"Abdominal Distension, incidence of TEAE","[12]; 100 mg BID, N=6",0 n (%)
same,"Abdominal discomfort, incidence of TEAE","[12]; 100 mg BID, N=6",0 n (%)
same,"Back pain, incidence of TEAE","[12]; 100 mg BID, N=6",1 (16.7%) n (%)
same,"Dysmenorrhoea, incidence of TEAE","[12]; 100 mg BID, N=6",0 n (%)
same,"Headache, incidence of TEAE","[12]; 100 mg BID, N=6",1 (16.7%) n (%)
same,"Nausea, incidence of TEAE","[12]; 100 mg BID, N=6",0 n (%)
same,"Peripheral swelling, incidence of TEAE","[12]; 100 mg BID, N=6",0 n (%)
same,"Presyncope, incidence of TEAE","[12]; 100 mg BID, N=6",0 n (%)
same,tolerability,[12]; 100 mg up through 1000 mg BID over 5 days,well-tolerated
same,"Abdominal Distension, incidence of TEAE","[12]; 250 mg BID, N=6",3 (50.0%) n (%)
same,"Abdominal discomfort, incidence of TEAE","[12]; 250 mg BID, N=6",0 n (%)
same,"Back pain, incidence of TEAE","[12]; 250 mg BID, N=6",0 n (%)
same,"Dysmenorrhoea, incidence of TEAE","[12]; 250 mg BID, N=6",2 (33.3%) n (%)
same,"Headache, incidence of TEAE","[12]; 250 mg BID, N=6",2 (33.3%) n (%)
same,"Nausea, incidence of TEAE","[12]; 250 mg BID, N=6",2 (33.3%) n (%)
same,"Peripheral swelling, incidence of TEAE","[12]; 250 mg BID, N=6",1 (16.7%) n (%)
same,"Presyncope, incidence of TEAE","[12]; 250 mg BID, N=6",1 (16.7%) n (%)
same,"Abdominal Distension, incidence of TEAE","[12]; 500 mg BID, N=6",0 n (%)
same,"Abdominal discomfort, incidence of TEAE","[12]; 500 mg BID, N=6",0 n (%)
same,"Back pain, incidence of TEAE","[12]; 500 mg BID, N=6",2 (33.3%) n (%)
same,"Dysmenorrhoea, incidence of TEAE","[12]; 500 mg BID, N=6",0 n (%)
same,"Headache, incidence of TEAE","[12]; 500 mg BID, N=6",2 (33.3%) n (%)
same,"Nausea, incidence of TEAE","[12]; 500 mg BID, N=6",1 (16.7%) n (%)
same,"Peripheral swelling, incidence of TEAE","[12]; 500 mg BID, N=6",0 n (%)
same,"Presyncope, incidence of TEAE","[12]; 500 mg BID, N=6",0 n (%)
same,"Abdominal Distension, incidence of TEAE","[12]; 750 mg BID, N=6",0 n (%)
same,"Abdominal discomfort, incidence of TEAE","[12]; 750 mg BID, N=6",2 (33.3%) n (%)
same,"Back pain, incidence of TEAE","[12]; 750 mg BID, N=6",0 n (%)
same,"Dysmenorrhoea, incidence of TEAE","[12]; 750 mg BID, N=6",0 n (%)
same,"Headache, incidence of TEAE","[12]; 750 mg BID, N=6",2 (33.3%) n (%)
same,"Nausea, incidence of TEAE","[12]; 750 mg BID, N=6",1 (16.7%) n (%)
same,"Peripheral swelling, incidence of TEAE","[12]; 750 mg BID, N=6",0 n (%)
same,"Presyncope, incidence of TEAE","[12]; 750 mg BID, N=6",0 n (%)
same,"Abdominal Distension, incidence of TEAE","[12]; 1000 mg BID, N=6",1 (16.7%) n (%)
same,"Abdominal discomfort, incidence of TEAE","[12]; 1000 mg BID, N=6",0 n (%)
same,"Back pain, incidence of TEAE","[12]; 1000 mg BID, N=6",0 n (%)
same,"Dysmenorrhoea, incidence of TEAE","[12]; 1000 mg BID, N=6",0 n (%)
same,"Headache, incidence of TEAE","[12]; 1000 mg BID, N=6",2 (33.3%) n (%)
same,"Nausea, incidence of TEAE","[12]; 1000 mg BID, N=6",0 n (%)
same,"Peripheral swelling, incidence of TEAE","[12]; 1000 mg BID, N=6",1 (16.7%) n (%)
same,"Presyncope, incidence of TEAE","[12]; 1000 mg BID, N=6",1 (16.7%) n (%)
same,participants with TEAEs considered at least possibly treatment-related,[12]; 15 of 30 participants treated with LYT-100,50.0%
same,dose-limiting toxicities,"[12]; 100 to 1000 mg BID, 5 days",No dose-limiting toxicities were observed
same,maximum tolerated dose,"[12]; 100 to 1000 mg BID, 5 days",No maximum tolerated dose was reached; also recorded: no maximally tolerated dose was reached
same,severity of adverse events at all doses,[12]; MAD study,mild and transient
same,"Abdominal Distension, incidence of TEAE","[12]; Overall LYT-100, N=30",4 (13.3%) n (%)
same,"Abdominal discomfort, incidence of TEAE","[12]; Overall LYT-100, N=30",2 (6.7%) n (%)
same,"Back pain, incidence of TEAE","[12]; Overall LYT-100, N=30",3 (10.0%) n (%)
same,"Dysmenorrhoea, incidence of TEAE","[12]; Overall LYT-100, N=30",2 (6.7%) n (%)
same,"Headache, incidence of TEAE","[12]; Overall LYT-100, N=30",9 (30.0%) n (%)
same,"Nausea, incidence of TEAE","[12]; Overall LYT-100, N=30",4 (13.3%) n (%)
same,"Peripheral swelling, incidence of TEAE","[12]; Overall LYT-100, N=30",2 (6.7%) n (%)
same,"Presyncope, incidence of TEAE","[12]; Overall LYT-100, N=30",2 (6.7%) n (%)
